Reference: ChEMBL document CHEMBL4354827, “Discovery of Novel, Potent, Brain-Permeable, and Orally Efficacious Positive Allosteric Modulator of α7 Nicotinic Acetylcholine Receptor [4-(5-(4-Chlorophenyl)-4-methyl-2-propionylthiophen-3-yl)benzenesulfonamide]: Structure-Activity Relationship and Preclinical Characterization” (J Med Chem, 2020)

Assays:
[1] = Drug metabolism in dog liver microsomes assessed as metabolic rate at 1 uM preincubated for 5 mins followed by NADPH addition after 30 mins by LC-MS/MS analysis; assay type: ADME, Canis lupus familiaris, Microsome; conditions: 0.5 h
[2] = Metabolic stability in monkey liver microsomes assessed as compound remaining at 1 uM preincubated for 5 mins followed by NADPH addition and measured after 30 mins by LC-MS/MS analysis; assay type: ADME, Macaca mulatta, Microsome; conditions: rhesus monkey, read-out: Stability
[3] = Protein binding in rat plasma at 5 uM incubated for 16 hrs under shaking condition by LC/MS/MS based rapid equilibrium dialysis method; assay type: ADME, cell-free; conditions: read-out: PPB (converted)
[4] = Protein binding in mouse plasma assessed as unbound fraction at 5 uM incubated for 16 hrs under shaking condition by LC/MS/MS based rapid equilibrium dialysis method; assay type: ADME, cell-free
[5] = Protein binding in dog plasma assessed as unbound fraction at 5 uM incubated for 16 hrs under shaking condition by LC/MS/MS based rapid equilibrium dialysis method; assay type: ADME, cell-free, Canis lupus familiaris
[6] = Cmax in Wistar rat at 10 mg/kg, po after 0.25 to 144 hrs by LC-MS/MS analysis; assay type: ADME, organism-based; set-up: dose 10 mg/kg, route oral; conditions: in vivo
[7] = Tmax in BALB/c mouse at 1 mg/kg, iv after 0.083 to 144 hrs by LC-MS/MS analysis; assay type: ADME, organism-based; conditions: in vivo
[8] = Half life in BALB/c mouse at 1 mg/kg, iv after 0.083 to 144 hrs by LC-MS/MS analysis; assay type: ADME, organism-based; conditions: in vivo
[9] = Volume of distribution at steady state in Wistar rat at 1 mg/kg, iv after 0.083 to 144 hrs by LC-MS/MS analysis; assay type: ADME, organism-based; conditions: in vivo, read-out: Vdss
[10] = Drug concentration in Wistar rat brain at 10 mg/kg, po after 1 hr by LC-MS/MS analysis; assay type: ADME, organism-based; conditions: read-out: Drug uptake
[11] = Drug concentration in Wistar rat brain at 10 mg/kg, po after 48 hrs by LC-MS/MS analysis; assay type: ADME, organism-based; conditions: read-out: Drug uptake
[12] = Unbound brain-to-plasma concentration ratio in Wistar rat at 10 mg/kg, po after 4 hrs by LC-MS/MS analysis; assay type: ADME, organism-based; conditions: read-out: K(p,uu,brain)
[13] = Unbound brain-to-plasma concentration ratio in Wistar rat at 10 mg/kg, po after 24 hrs by LC-MS/MS analysis; assay type: ADME, organism-based; conditions: read-out: K(p,uu,brain)
[14] = AUCt in Wistar rat plasma at 10 mg/kg, po after 1 to 144 hrs by LC-MS/MS analysis; assay type: ADME, organism-based
[15] = Tmax in Wistar rat brain at 10 mg/kg, po after 1 to 144 hrs by LC-MS/MS analysis; assay type: ADME, organism-based
[16] = Ratio of AUCt in brain to plasma in Wistar rat at 10 mg/kg, po after 144 hrs by LC-MS/MS analysis; assay type: ADME, organism-based
[17] = target: Cytochrome P450 3A4 (Homo sapiens, UniProt P08684); assay: Inhibition of CYP3A4 (unknown origin) up to 10 uM; assay type: ADME
[18] = target: T1, Cytochrome P450 2A6 (Homo sapiens, UniProt P11509); assay: Inhibition of CYP2A6 (unknown origin) up to 10 uM; assay type: ADME
T1 sequence (P11509 whole entry): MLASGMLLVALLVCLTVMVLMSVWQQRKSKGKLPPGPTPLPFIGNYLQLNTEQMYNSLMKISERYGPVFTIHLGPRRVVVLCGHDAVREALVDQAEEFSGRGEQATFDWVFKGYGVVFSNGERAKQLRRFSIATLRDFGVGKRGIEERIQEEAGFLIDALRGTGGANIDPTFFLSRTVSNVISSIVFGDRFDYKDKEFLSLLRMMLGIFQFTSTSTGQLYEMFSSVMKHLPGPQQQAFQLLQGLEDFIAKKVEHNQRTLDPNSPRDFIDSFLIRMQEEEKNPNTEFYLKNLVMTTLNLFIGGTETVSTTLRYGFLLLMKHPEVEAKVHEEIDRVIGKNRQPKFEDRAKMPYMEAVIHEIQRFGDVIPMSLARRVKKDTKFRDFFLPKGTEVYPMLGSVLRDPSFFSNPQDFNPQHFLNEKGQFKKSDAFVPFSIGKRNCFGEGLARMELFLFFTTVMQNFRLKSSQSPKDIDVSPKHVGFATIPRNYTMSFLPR

[19] = system: Rattus norvegicus; assay: Memory enhancement effect in time-delay induced Wistar rat model of amnesia assessed as increase in exploration time for novel object in retention trial at 1 mg/kg, po administered as single dose and measured on day 9 by novel object recognition test (reference value: 12.06 sec); assay type: functional
[20] = system: Rattus norvegicus; assay: Memory enhancement effect in scopolamine-induced Wistar rat model of amnesia assessed as exploration time for object2 in acquisition trial at 0.5 mg/kg, po administered as single dose and measured on day 8 by novel object recognition test (reference value: 15.63 sec); assay type: functional
[21] = system: Rattus norvegicus; assay: Memory enhancement effect in time-delay induced Wistar rat model of amnesia assessed as exploration time for object2 at 1 mg/kg, po administered as single dose after acquisition trial by novel object recognition test (reference value: 21.07 sec); assay type: functional
[22] = system: Rattus norvegicus; assay: Memory enhancement effect in time-delay induced Wistar rat model of amnesia assessed as exploration time for novel object in retention trial at 0.15 mg/kg, po for 7 days and measured on day 8 by novel object recognition test (reference value: 15.37 sec); assay type: functional
[23] = system: Rattus norvegicus; assay: Memory enhancement effect in time-delay induced Wistar rat model of amnesia assessed as exploration time for novel object in retention trial at 0.5 mg/kg, po for 7 days and measured on day 8 by novel object recognition test (reference value: 15.37 sec); assay type: functional
[24] = Drug level in Wistar rat plasma at 0.5 mg/kg, po; assay type: ADME, organism-based; conditions: in vivo
[25] = system: Rattus norvegicus; assay: Memory enhancement effect in scopolamine-induced Wistar rat model of amnesia assessed as increase in discrimination index at 0.15 mg/kg, po for 7 days and measured on day 8 by novel object recognition test (reference value: 0.21); assay type: functional
[26] = system: Rattus norvegicus; assay: Improvement in social recognition scopolamine-induced Sprague-Dawley rat model of amnesia assessed as increase in reduction in social investigation time at 1 mg/kg, po administered as single dose prior to 1 hr training and measured after 30 mins (reference value: 9.81%); assay type: functional; set-up: scale not given: the % may be the effect or the level left
[27] = system: Rattus norvegicus; assay: Improvement in social recognition scopolamine-induced Sprague-Dawley rat model of amnesia assessed as reduction in recognition index 3 mg/kg, po administered as single dose prior to 1 hr training and measured after 30 mins (reference value: 0.9); assay type: functional
[28] = system: Rattus norvegicus; assay: Improvement in social recognition time delay-induced Sprague-Dawley rat model of amnesia assessed as reduction in recognition index at 0.05 mg/kg, po for 7 days and measured on day 9 (reference value: 1.05); assay type: functional
[29] = system: Rattus norvegicus; assay: Improvement in social recognition time delay-induced Sprague-Dawley rat model of amnesia assessed as reduction in recognition index at 0.50 mg/kg, po for 7 days and measured on day 9 (reference value: 1.05); assay type: functional
[30] = Drug level in scopolamine-induced Sprague-Dawley rat plasma at 0.15 mg/kg, po for 7 days; assay type: ADME, organism-based
[31] = AUC(0 to infinity) in human at 7.5 to 100 mg; assay type: ADME
[32] = Half life in human at 7.5 to 50 mg administered for 14 days; assay type: ADME; conditions: in vivo

Chain of Cytochrome P450 3A4 (P08684 whole entry): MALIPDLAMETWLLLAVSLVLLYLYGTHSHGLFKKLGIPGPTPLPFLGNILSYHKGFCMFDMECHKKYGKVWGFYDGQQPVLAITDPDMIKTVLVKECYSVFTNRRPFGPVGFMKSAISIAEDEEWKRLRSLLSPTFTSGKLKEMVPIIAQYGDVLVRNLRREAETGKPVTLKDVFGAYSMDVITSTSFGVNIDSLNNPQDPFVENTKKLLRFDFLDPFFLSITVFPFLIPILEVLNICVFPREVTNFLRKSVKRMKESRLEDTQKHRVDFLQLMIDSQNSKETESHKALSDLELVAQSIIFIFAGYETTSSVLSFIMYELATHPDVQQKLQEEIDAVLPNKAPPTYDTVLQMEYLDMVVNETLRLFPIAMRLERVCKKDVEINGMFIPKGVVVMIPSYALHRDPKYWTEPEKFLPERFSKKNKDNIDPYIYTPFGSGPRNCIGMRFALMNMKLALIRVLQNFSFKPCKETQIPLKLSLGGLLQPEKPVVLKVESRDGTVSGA

CCC(=O)c1sc(-c2ccc(Cl)cc2)c(C)c1-c1ccc(S(N)(=O)=O)cc1
Drug metabolism [1]: 0.01 nmol/min/mg
remaining at 0.5 h, 1 µM [2]: 79%
fraction unbound at 16 h, 5 µM [3]: 0.0058
fraction unbound at 16 h, 5 µM [4]: 0.0116
fraction unbound at 16 h, 5 µM [5]: 0.0031
Cmax [6]: 4.1 µM
Tmax [7]: 4.8 min
half-life [8]: 14 h
Vd [9]: 4.3 L/kg
concentration at 1 h [10]: 4.03 µM
concentration at 48 h [11]: 5.53 µM
Kp uu at 4 h [12]: 1.29
Kp uu at 24 h [13]: 1.07
AUC(0-t) [14]: 35 µM·h
Tmax [15]: 4 h
Kp at 144 h [16]: 9
inhibition (INH) [17]: Not Active
inhibition (INH) [18]: Not Active
Time [19]: 25.93 s
Time [20]: 16.55 s
Time [21]: 25.36 s
Time [22]: 7.15 s
Time [23]: 19.64 s
concentration [24]: 0.27 µM
Activity_index [25]: 0.5
Activity [26]: 48.49%
Activity_index [27]: 0.45
Activity_index [28]: 0.81
Activity_index [29]: 0.54
concentration at 168 h [30]: 0.18 µM
AUC(0-inf) [31]: 261 to 24100 ng·h/mL
half-life [32]: 48 to 80.9 h
